Data as given in patent US7612107B2, “Treatment and inhibition of disease conditions using flexible heteroarotinoids” (The Board of Regents of the University of Oklahoma, priority 2005, dated 2009).

Tests used:
[1] = tested on: NCI human tumor cell line panel; experiment: SHetA2 cytotoxicity in NCI human tumor cell line panel; assay type: cell-based
Procedure: The SHetA2 compound was evaluated in the National Cancer Institute (NCI) human tumor cell line panel by the Developmental Therapeutics Program (DTP). The human tumor cell lines were grown in RPMI 1640 medium containing 5% fetal bovine serum and 2 mM L-glutamine. Cells were inoculated into 96 well microtiter plates at densities ranging from 5,000 to 40,000 cells/well depending on the doubling time of individual cell lines and incubated for 24 h prior to addition of SHetA2. After 24 h, two plates of each cell line were fixed in situ with TCA, to represent a measurement of the cell population for each cell line at the time of drug addition (Tz). Drugs were dissolved in dimethyl sulfoxide (DMSO) and diluted in complete medium containing 50 μg/ml gentamicin, prior to addition to the culture wells. […] […] The absorbance was read on an automated plate reader at a wavelength of 515 nm. Using the seven absorbance measurements (time zero, (Tz), control growth, (C), and test growth in the presence of drug at the five concentration levels (Ti)), the GI50 was calculated from [(Ti−Tz)/(C−Tz)]×100=50. […]

ovarian cancer cells = experiment: Microarray analysis of gene expression in SHetA2-treated ovarian cancer cells; assay type: cell-based, Homo sapiens
Procedure: Microarray analysis was conducted to determine specific disease causing genes which were expressed at higher (>1 fold) or lower (<1 fold) levels than normal in ovarian cancer cells treated with SHetA2 (see Table 6).

[2] = Genbank AI358954, Neuromuscular Diseases

## CC1(C)CC(C)(C)c2cc(NC(=S)Nc3ccc([N+](=O)[O-])cc3)ccc2S1 [SHetA2]
[1]; 10 and 100 μM SHetA2, majority of cell lines
  percent growth levels: negative percent growth levels
[1]; 55 cell lines, 9 cancer types, 48 h
  GI50 values: micromolar range
Ovarian cancer cells; Genbank AA523444, Cancer
  Fold: Putative c-Myc-responsive (RCL): 0.41 Fold
Ovarian cancer cells; Genbank AB016902.2, Cancer
  Fold: Myeloidlymphoid or mixed-lineage leukemia (trithorax (Drosophila) homolog); translocated to, 4 (HGC6.3): 5.07 Fold
Ovarian cancer cells; Genbank AF022375.1
  Fold: Vascular endothelial growth factor (VEGF): 0.47 Fold
Ovarian cancer cells; Genbank AF060152.1
  Fold: METH1 protein (METH1), contain a repeated amino acid motif homologous to the anti-angiogenic type 1 repeats of thromospondin-1 (TSP1): 0.39 Fold
Ovarian cancer cells; Genbank AF068266.1, Cancer
  Fold: EHT protein: 2.80 Fold
Ovarian cancer cells; Genbank AF098968.1, Autoimmune Diseases
  Fold: Familial Mediterranean fever locus region: 0.30 Fold
Ovarian cancer cells; Genbank AF105279.1, Cancer
  Fold: Myeloidlymphoid leukemia 2 (MLL2): 0.31 Fold
Ovarian cancer cells; Genbank AF111178.1
  Fold: Glypican-6 (GPC6): 2.07 Fold
Ovarian cancer cells; Genbank AF144243.1, Storage and Metabolism Deficiencies
  Fold: Hemochromatosis splice variant 495-2314del, Iron Storage Disorder: 3.01 Fold
Ovarian cancer cells; Genbank AF218570.1, Cancer
  Fold: BAGE2 antigen (BAGE2): 0.34 Fold
Ovarian cancer cells; Genbank AF257099, Polycystic Kidney Disease
  Fold: Prothymosin alpha (PTMA): 2.60 Fold
Ovarian cancer cells; Genbank AF264787.1, Cancer
  Fold: Deleted in lymphocytic leukemia, 2/DEF = Homo sapiens BCMS-upstream neighbor (BCMSUN): 0.33 Fold
  Fold: Deleted in lymphocytic leukemia, BCMS-upstream neighbor (BCMSUN) (DLEU2): 0.40 Fold
Ovarian cancer cells; Genbank AF277186.1, Cancer
  Fold: PNAS-128 in leukemia: 0.36 Fold
Ovarian cancer cells; Genbank AF455755.1, Cancer
  Fold: BAM in multiple myeloma: 3.05 Fold
Ovarian cancer cells; Genbank AF465843.1, Cancer
  Fold: Cervical cancer suppressor gene-4 protein (HCCS-4): 2.06 Fold
Ovarian cancer cells; Genbank AI042152, Cancer
  Fold: FLJ23538 fis, highly similar to BETA2 Human MEN1(Multiple Endocrine Neoplasia) region clone epsilonbeta (BETA2): 0.31 Fold
Ovarian cancer cells; Genbank AI080106, Cancer
  Fold: ESTs, Moderately similar to S72399 ras-homolog GTPase rab28 isoform S: 7.75 Fold
Ovarian cancer cells; Genbank AI299378, Cancer
  Fold: Prostate cancer associated protein 5 (PCANAP5): 0.23 Fold
Ovarian cancer cells; [2]
  Fold: ESTs, Weakly similar to DRPL_Human Atrophin-1 (DRPL) in Huntington's disease (HD) and dentatorubral and pallidoluysian atrophy (DRPLA) dentatorubral-pallidoluysian atrophy: 2.52 Fold
  Fold: ESTs, Weakly similar to DRPL_Human Atrophin-1 (DRPL) in dentatorubral-pallidoluysian atrophy: 2.52 Fold
Ovarian cancer cells; Genbank AI829875, Cancer
  Fold: B-cell CLLlymphoma 3 (BCL3): 2.58 Fold
Ovarian cancer cells; Genbank AI990940, Cancer
  Fold: Lipoma cell line Li-538SV40 ectopic sequence from HMGI-C fusion mRNA, 3 sequence (LI): 0.47 Fold
Ovarian cancer cells; Genbank AI991252, Autoimmune Diseases
  Fold: Butyrophilin, subfamily 3, member A2 (BTN3A2) milk protein: 2.31 Fold
Ovarian cancer cells; Genbank AK023795.1
  Fold: Disintegrin-like and metalloprotease (reprolysin type) with thrombospondin type 1 motif, highly similar to Homo sapiens metalloproteinase with thrombospondin type 1 motifs (ADAMTS1): 0.43 Fold
Ovarian cancer cells; Genbank AK025558
  Fold: 3-hydroxyisobutyrate dehydrogenase, mitochondrial precursor: 0.00 Fold
Ovarian cancer cells; Genbank AW779859, Cancer
  Fold: NICE-5 protein: 0.48 Fold
Ovarian cancer cells; Genbank AY034077.1, Cancer
  Fold: ASPLTFE3 type 2 fusion protein, ASPLTFE3 type 1 fusion protein mRNA in Sarcoma: 0.46 Fold
Ovarian cancer cells; Genbank AY062002.1, Cancer
  Fold: RASSF3 isoform A, putative tumor suppressor: 2.88 Fold
Ovarian cancer cells; Genbank BC000729.1
  Fold: A kinase (PRKA) anchor protein 1, clone MGC: 1807: 2.00 Fold
Ovarian cancer cells; Genbank BC001525, Cancer
  Fold: IMAGE: 3050107 mRNA, TBC1 domain family: 0.67 Fold
Ovarian cancer cells; Genbank BC002712.1, Cancer
  Fold: v-Myc avian myelocytomatosis viral related oncogene, neuroblastoma derived (MYCN): 3.99 Fold
Ovarian cancer cells; Genbank BC013114
  Fold: aarF domain containing kinase 4: 2.30 Fold
Ovarian cancer cells; Genbank BC041664.1, Eye Diseases
  Fold: Similar to vitelliform macular dystrophy (Best disease, bestrophin): 0.26 Fold
Ovarian cancer cells; Genbank BE999967
  Fold: Thrombospondin 1 (THBS1): 0.42 Fold
Ovarian cancer cells; Genbank BF114870, Neuromuscular Diseases
  Fold: SNRPN upstream reading frame (SNURF) in Prader-Willi and Angelman syndrome: 0.39 Fold
Ovarian cancer cells; Genbank Cluster Incl. AL021977, Cancer
  Fold: Novel MAFF (v-maf musculoaponeurotic fibrosarcoma (avian) oncogene family, protein F) LIKE protein: 0.47 Fold
Ovarian cancer cells; Genbank Cluster Incl. U90548, Autoimmune Diseases
  Fold: Butyrophilin (BTF3) - Milk Fat: 2.15 Fold
Ovarian cancer cells; Genbank D38024, Skeletal Diseases
  Fold: Facioscapulohumeral muscular dystrophy (FSHD) gene region, D4Z4 tandem repeat unit: 2.43 Fold
Ovarian cancer cells; Genbank M14333.1, Cancer
  Fold: FYN oncogene related to SRC, FGR and YES, c-syn protooncogene: 0.44 Fold
Ovarian cancer cells; Genbank M83248.1, Storage and Metabolism Deficiencies
  Fold: Nephropontin inhibits urine crystals - kidney stones: 2.34 Fold
Ovarian cancer cells; Genbank N20923, Cancer
  Fold: FYN oncogene related to SRC, FGR and YES (FYN): 0.13 Fold
Ovarian cancer cells; Genbank NM_000231.1, Skeletal Diseases
  Fold: Sarcoglycan, gamma (35 kD dystrophin-associated glycoprotein) (Muscular Dystrophy): 0.04 Fold
